Results on five molecules are retold here after US7572903B1, “Method of regulation of bacterial persister status” (priority 2005, dated 2009).

Read-outs that look alike come from different tables or passages of the source. Bridge positions count the residues as written; N and C are the ends. Square brackets hold non-standard residues; d marks the D form. Peptide text beside a SMILES is read from it. * marks the point of attachment. Ileψ(thiazoline)Cys = CC[C@H](C)[C@H](N)C1=N[C@H](C(=O)*)CS1; dOrn = NCCC[C@@H](N)C(=O)O

Holding throughout (assay type): cell-based, Escherichia coli
In test [1] the test system is E. coli K-12 C600::mTn5gusA-pgfp21. To be noted: mid-log phase. As to the method: In the latter set of experiments reaction mixtures included nutrient broth (25% normal strength) in order to facilitate growth during the exposure. […] At various time intervals samples (0.1 mL) were removed and serially diluted either in sterile phosphate buffered saline (pH 7, 0.1M) or lecithin (2% w/v)—tween 80 (3% w/v) broth as a specific neutralizer of quaternary ammonium biocides (Wright, et al., J. App. Bacterial. 62:309-314, 1986). Samples of appropriate dilutions were plated, in triplicate, onto nutrient agar and colonies counted after 16 hour incubation at 37° C. Survival was expressed relative to untreated control suspensions.
(§1) When cells were required for culture and/or susceptibility determinations collections were made of discrete fractions of cells within the upper 1 and 5%, and the lower 1, 5 and 10% of fluorescence intensity. Control populations consisted of the entire population of cells having been passed through the cytometer and sorter. Cell sort rates of circa 10^3/sec were deployed enabling collection of circa 10^4-5 cfu within 10 minutes. Cell concentrations were adjusted from the cytometer count by dilution with fresh PBS. Suspensions of collected cells were used immediately for microbiological analysis.
Collections of poorly fluorescent cells from mid-log phase cultures were made and susceptibility re-determined towards tetradecylbenzalkonium chloride, and towards various other treatment agents.

Test [2] shares this test system. Put plainly: Time-dependent survival of FACS-sorted fractions exposed to tetradecylbenzalkonium chloride. The method, then: In the latter set of experiments reaction mixtures included nutrient broth (25% normal strength) in order to facilitate growth during the exposure. This was necessary in order to get adequate killing by β-lactam antibiotics. At various time intervals samples (0.1 mL) were removed and serially diluted either in sterile phosphate buffered saline (pH 7, 0.1M) or lecithin (2% w/v)—tween 80 (3% w/v) broth as a specific neutralizer of quaternary ammonium biocides (Wright, et al., J. App. Bacterial. 62:309-314, 1986). Samples of appropriate dilutions were plated, in triplicate, onto nutrient agar and colonies counted after 16 hour incubation at 37° C. Survival was expressed relative to untreated control suspensions.
as §1
The FACS vantage was also deployed to separate populations of cells, from stationary phase cultures, corresponding to the lower (1, 5 and 10%) fluorescence intensity cells and the upper (1 and 5%) fluorescence intensity cells (FIG. 1). These cells were immediately subjected to exposure to tetradecyl-benzalkonium chloride (3.68 μg/mL) for various times up to 20 minutes. After neutralization in lecithin-tween 80 broth the numbers of surviving cells was determined by plate count. In all instances the shapes of the survival curves were non-linear indicating an initial rapid phase of killing followed by a plateau phase. […] Survival beyond 10 minutes exposure therefore reflected the presence of non-susceptible cells.

Test [3] has as its system E. coli K-12 C600::mTn5gusA-pgfp21 intergenic knockouts. The test can be described thus: Susceptibility of putative intergenic knockouts towards cetrimide USP. The text has this: Intergenic knockouts were made to E. coli K-12 C600::mTn5gusA-pgfp21 with respect to IG216, IG477, IG870, IG873, IG1602, IG1604 and IG1484 using the protocol described by Datsenko, et al. (Proceedings of the National Academy of Sciences of the United States of America 97, 6640-6645, 2000). Plasmid pKD3 was used as a template to generate PCR products with a selectable antibiotic resistance marker (chloramphenicol) and 40 nt homology extensions relating the genes flanking each targeted intergenic region. Modifications of the method included a 10-fold increase in the concentration of L-arabinose (10 mM) for induction of λ Red genes in the helper plasmid pKD46, and 50-fold increases in the amount of PCR product (500 ng) used to transform E. coli K-12 C600 containing pKD46. Further amendments to the method were associated with recovery of transformants following electroporation. […]
Putative intergenic knockouts were grown as liquid culture in nutrient broth, harvested at mid-exponential phase, washed in PBS as described in section 2.1 (a) and adjusted to 1×10^5 cfu/ml in PBS. […] The viability of cells in the antimicrobial and control tubes was monitored after 1 hour incubation at 37° C. at 200 rpm in an orbital shaker. […]

The subject of test [4] is E. coli CC118 overexpression and suppression mutants. The test can be described thus: Antimicrobial susceptibility of conditional overexpression and antisense suppression strains (cetrimide challenge). To be noted: relative to parental E. coli CC118, 9 μg/ml cetrimide 1 h. The method, then:
Conditional overexpression and anti-sense suppression strains of E. coli (Table 14) were grown as liquid cultures in nutrient broth. Expression of target sense and antisense sequences was induced by addition of IPTG (Bioline), during early exponential phase, to a final concentration of 0.1 mM. Cells were grown until mid-late exponential (1.75 h after IPTG addition) or to stationary phase (14.5 h after ITPG addition), and harvested by centrifugation (10,000 x g, 10 min) at 4° C. The supernatants were decanted and the pellets suspended into equal volumes of PBS. The centrifugation and washing steps were repeated twice, after which the pellets were re-suspended in PBS to an optical density (OD470 nm) of 1.0, corresponding to approximately 1-2×10^8 cfu/ml mid-exponential or stationary phase cells.
Cells were exposed to 9 μg/ml cetrimide USP for 1 hr in PBS with final concentration of 5×10^7 cells/ml. Controls without the addition of the biocide containing the same concentration of cells and PBS were run in parallel. Following incubation samples (0.1 ml) were removed and serially diluted in lecithin (2% w/v)—tween 80 (3% w/v) broth as a specific neutralizer of quaternary ammonium biocides (Wright, et al., J. Appd. Bacteriol, 62, 309-314, 1986). Samples of appropriate dilutions were plated, in triplicate, onto nutrient agar and colonies counted after 16 h incubation at 37° C. Survival was expressed relative to untreated control suspensions that were similarly treated with IPTG. […] The susceptibility of the parental strain E. coli (CC118 towards cetrimide USP was investigated in the same experiments and was used as a reference to determine the effect of overexpression and antisense suppression of target sequences.

As to `NCC[C@H](O)C(=O)N[C@@H]1C[C@H](N)[C@@H](O[C@H]2O[C@H](CN)[C@@H](O)[C@H](O)[C@H]2O)[C@H](O)[C@H]1O[C@H]1O[C@H](CO)[C@@H](O)[C@H](N)[C@H]1O` [Amikacin, amikacin], the “percentage survival relative to untreated controls” value in test [1] (0-5% FI fraction, amikacin 0.75 μg/ml, 1 hour, SD in parenthesis) was 68 (17) %; in test [1] (95-100% FI fraction, amikacin 0.75 μg/ml, 1 hour, SD in parenthesis) it was 32 (0) %; in test [1] (Control 0-100% fluorescence fraction, amikacin 0.75 μg/ml, 1 hour, SD of triplicate in parenthesis), 39 (3.0) %.
In the case of `CC[C@H](C)[C@H](N)C1=N[C@H](C(=O)N[C@@H](CC(C)C)C(=O)N[C@H](CCC(=O)O)C(=O)N[C@H](C(=O)N[C@H]2CCCCNC(=O)[C@H](CC(N)=O)NC(=O)[C@@H](CC(=O)O)NC(=O)[C@H](Cc3cnc[nH]3)NC(=O)[C@@H](Cc3ccccc3)NC(=O)[C@H]([C@@H](C)CC)NC(=O)[C@@H](CCCN)NC2=O)[C@@H](C)CC)CS1` [Bacitracin, bacitracin] ({Ileψ(thiazoline)Cys}-L[dE]IK[dOrn]I[dF]H[dD]N; lactam 4-C), the “percentage survival relative to untreated controls” value in test [1] (0-5% FI fraction, bacitracin 0.7 mg/ml, 40 min, SD in parenthesis) is given as 83 (1.5) %; in test [1] (95-100% FI fraction, bacitracin 0.7 mg/ml, 40 min, SD in parenthesis), 34 (4.6) %; in test [1] (Control 0-100% fluorescence fraction, bacitracin 0.7 mg/ml, 40 min, SD in parenthesis), 57 (8.5) %.
On to `O=C(O)c1cn(C2CC2)c2cc(N3CCNCC3)c(F)cc2c1=O` [Ciprofloxacin, ciprofloxacin], for which the “percentage survival relative to untreated controls” value in test [1] (0-5% FI fraction, ciprofloxacin 0.05 μg/ml, 1 hour, SD in parenthesis) is recorded as 44 (2.0) %; in test [1] (95-100% FI fraction, ciprofloxacin 0.05 μg/ml, 1 hour, SD in parenthesis), 35 (3.6) %; in test [1] (Control 0-100% fluorescence fraction, ciprofloxacin 0.05 μg/ml, 1 hour, SD in parenthesis) it was 40 (0) %.
As to Tetradecylbenzalkonium chloride, the “proportion of persister cells in the cell fraction” value in test [2] (least intensely fluorescent cell fraction (1%), stationary phase, 3.68 μg/mL, exposure up to 20 minutes) is greater than 80%. Further, the survival of cells result in test [2] (most fluorescently intense cells, stationary phase, 3.68 μg/mL, after 1 minute exposure) is “eradicated beyond detection”. Further, in test [2] (poorly fluorescent cells from mid-log phase cultures), the “proportion of persisters in mid-log phase compared with stationary phase” value is recorded as “substantially reduced”.
On to cetrimide [Cetrimide USP], for which the “percentage survival relative to untreated controls” value in test [1] (0-5% FI fraction, cetrimide USP 0.5 μg/ml, 1 hour, SD in parenthesis) is listed as 22 (3.7) %; in test [1] (95-100% FI fraction, cetrimide USP 0.5 μg/ml, 1 hour, SD in parenthesis) it was 2.5 (0.97) %; in test [1] (Control 0-100% fluorescence fraction, cetrimide USP 0.5 μg/ml, 1 hour, SD in parenthesis) it was 18 (3.4) %. For the same molecule, the “susceptibility of intergenic knockout clones compared with controls” value is given as “profoundly changed” in test [3] (IG216, IG873, IG1484 and IG1602 knockouts, at both the lower and higher treatment level); “substantially reduced” in test [3] (all developed clones (IG216, IG477, IG870, IG873, IG1602, IG1604, IG1484), 0.6 and 2.0 μg/ml, 1 hour). Also, the “Fold Change in persister fraction (fold increase)” value is reported as 3.05 fold in test [4] (strain lit (+), exponential phase, IPTG 0.1 mM 1.75 h); 1.31 fold in test [4] (strain lit (−), exponential phase, IPTG 0.1 mM 1.75 h); 2.82 fold in test [4] (strain mcrA (+), exponential phase, IPTG 0.1 mM 1.75 h); 10.38 fold in test [4] (strain pin (+), exponential phase, IPTG 0.1 mM 1.75 h); 18.98 fold in test [4] (strain pin (−), exponential phase, IPTG 0.1 mM 1.75 h); 22.85 fold in test [4] (strain ykgK (+), exponential phase, IPTG 0.1 mM 1.75 h). Further, the “Fold Change in persister fraction (fold decrease)” value was determined as 4.08 fold decrease in test [4] (strain lit (−), stationary phase, IPTG 0.1 mM 14.5 h); 1.01 fold in test [4] (strain yagL (+), exponential phase, IPTG 0.1 mM 1.75 h); 5.35 fold in test [4] (strain ykgK (−), exponential phase, IPTG 0.1 mM 1.75 h); 1.65 fold in test [4] (strain ykgM (+), exponential phase, IPTG 0.1 mM 1.75 h); 1.83 fold in test [4] (strain ykgM (−), exponential phase, IPTG 0.1 mM 1.75 h). In addition, the “Fold Change in persister fraction” value in test [4] (strain pin (−), stationary phase, IPTG 0.1 mM 14.5 h) is listed as “No persisters detected”; in test [4] (strain ykgK (−), stationary phase, IPTG 0.1 mM 14.5 h) it was “No persisters detected”; in test [4] (strain ykgM (−), stationary phase, IPTG 0.1 mM 14.5 h) it was “No persisters detected”.
